Assay results from patent US6274715A, “Tricyclic erythromycin derivatives” (priority 1997, dated 2001).
In brackets after ≈: the same amount, converted by molar mass.

What was measured:
Assay type in all cases: cell-based
ESCHERICHIA COLI KNK 437 = conditions: E. coli KNK 437; BHI agar; unit assumed
[1] = tested on: PSEUDOMONAS AERUGINOSA K799/WT; experiment: In vitro antibacterial activity, MIC, BHI agar dilution; conditions: P. aeruginosa K799/WT, unit assumed
[2] = tested on: PSEUDOMONAS AERUGINOSA BMH10; experiment: as above; conditions: P. aeruginosa BMH10, unit assumed
[3] = tested on: PSEUDOMONAS AERUGINOSA 5007; experiment: as above; conditions: P. aeruginosa 5007, unit assumed
[4] = tested on: PSEUDOMONAS AERUGINOSA DPHD-2862; experiment: as above; conditions: P. aeruginosa DPHD-2862, unit assumed
[5] = tested on: STREPTOCOCCUS PYOGENES EES61; experiment: as above; conditions: S. pyogenes EES61, unit assumed
[6] = tested on: STAPHYLOCOCCUS AUREUS A-5278; experiment: as above; conditions: S. aureus A-5278, unit assumed
[7] = tested on: PSEUDOMONAS AERUGINOSA DPHD-5263; experiment: as above; conditions: P. aeruginosa DPHD-5263, unit assumed
[8] = tested on: ENTEROBACTER AEROGENES ATCC 13048; experiment: as above; conditions: E. aerogenes ATCC 13048, unit assumed
[9] = tested on: STAPHYLOCOCCUS AUREUS CMX 553; experiment: as above; conditions: S. aureus CMX 553, unit assumed
[10] = tested on: KLEBSIELLA PNEUMONIAE ATCC 8045; experiment: as above; conditions: K. pneumoniae ATCC 8045, unit assumed
CANDIDA ALBICANS CCH 442 = experiment: as above; conditions: C. albicans CCH 442, unit assumed
[11] = tested on: STAPHYLOCOCCUS AUREUS CMX 642A; experiment: as above; conditions: S. aureus CMX 642A, unit assumed
[12] = tested on: STREPTOCOCCUS PYOGENES PIU 2548; experiment: as above; conditions: S. pyogenes PIU 2548, unit assumed
M[…] ATCC 9341 = experiment: as above; conditions: M. luteus ATCC 9341, unit assumed
Summary of the method: (§1)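 BHI agar dilution: twelve plates with successive compound dilutions, inoculated by replicator with 1:100 culture dilutions (1:10 for slow growers such as Micrococcus and Streptococcus), 20 to 24 hours at 35-37° C. MIC was the lowest concentration giving no growth, slight haze or sparse isolated colonies versus drug-free control; erythromycin A as class reference.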

M[…] ATCC 4698 = experiment: as above; conditions: M. luteus ATCC 4698, unit assumed
Summary of the method: as §1

EN[…] ATCC 8043 = experiment: as above; conditions: E. faecium ATCC 8043, unit assumed
Summary of the method: as §1

STR[…] 508 = experiment: as above; conditions: S. agalactiae CMX 508, unit assumed
Summary of the method: as §1

[13] = tested on: STAPHYLOCOCCUS EPIDERMIDIS 3519; conditions: S. epidermidis 3519; BHI agar; unit assumed
[14] = tested on: PROVIDENCIA STUARTII CMX 640; conditions: P. stuartii CMX 640; BHI agar; unit assumed
PSEUDOMONAS CEPACIA 296I = experiment: In vitro antibacterial activity, MIC, BHI agar dilution; conditions: P. cepacia 296I, unit assumed
[15] = tested on: STAPHYLOCOCCUS AUREUS A5177; experiment: as above
[16] = tested on: ACINETOBACTER CALCOACETICUS CMX 669; experiment: as above; conditions: A. calcoaceticus CMX 669, unit assumed
ESCHERICHIA COLI DC-2 = experiment: as above; conditions: E. coli DC-2, unit assumed
[17] = tested on: STAPHYLOCOCCUS AUREUS 1775; experiment: as above; conditions: S. aureus 1775, unit assumed
[18] = tested on: STREPTOCOCCUS BOVIS A-5169; experiment: as above; conditions: S. bovis A-5169, unit assumed
[19] = tested on: PSEUDOMONAS AERUGINOSA K799/61; experiment: as above; conditions: P. aeruginosa K799/61, unit assumed
[20] = tested on: STAPHYLOCOCCUS AUREUS NCTC10649M; experiment: as above; conditions: S. aureus NCTC10649M, unit assumed
[21] = tested on: STREPTOCOCCUS PYOGENES 930; experiment: as above; conditions: S. pyogenes 930, unit assumed
[22] = tested on: MYCOBACTERIUM SMEGMATIS ATCC 114; experiment: as above; conditions: M. smegmatis ATCC 114, unit assumed
ESCHERICHIA COLI H560 = experiment: as above; conditions: E. coli H560, unit assumed
[23] = tested on: STAPHYLOCOCCUS AUREUS ATCC 6538P; experiment: as above; conditions: S. aureus ATCC 6538P, 35-37° C., 20 to 24 hours, unit assumed
ESCHERICHIA COLI SS = experiment: as above; conditions: E. coli SS, unit assumed

Structure (SMILES) | MIC (ESCHERICHIA COLI KNK 437) [µg/mL] | MIC [1] [µg/mL] | MIC [2] [µg/mL] | MIC [3] [µg/mL] | MIC [4] [µg/mL] | MIC [5] [µg/mL] | MIC [6] [µg/mL] | MIC [7] [µg/mL] | MIC [8] [µg/mL] | MIC [9] [µg/mL] | MIC [10] [µg/mL] | MIC (CANDIDA ALBICANS CCH 442) [µg/mL] | MIC [11] [µg/mL] | MIC [12] [µg/mL] | MIC (M[…] ATCC 9341) [µg/mL] | MIC (M[…] ATCC 4698) [µg/mL] | MIC (EN[…] ATCC 8043) [µg/mL] | MIC (STR[…] 508) [µg/mL] | MIC [13] [µg/mL] | MIC [14] [µg/mL] | further results
CC[C@H]1OC(=O)[C@H](C)C[C@H](C)[C@@H](O[C@@H]2O[C@H](C)C[C@H](N(C)C)[C@H]2O)[C@](C)(OC)C[C@@H](C)C2=NCCN3C(=O)O[C@@]1(C)[C@H]3[C@H]2C [Example 1] | 25 (≈ 40.1 µM) | > 100 | > 100 | > 100 | > 100 | 0.39 (≈ 0.625 µM) | > 100 | 50 (≈ 80.1 µM) | > 100 | 6.2 (≈ 9.94 µM) | > 100 | > 100 | 6.2 (≈ 9.94 µM) | 0.78 (≈ 1.25 µM) | 0.39 (≈ 0.625 µM) | 0.39 (≈ 0.625 µM) | 0.78 (≈ 1.25 µM) | 0.39 (≈ 0.625 µM) | 12.5 (≈ 20 µM) | 100 (≈ 160 µM) | MIC (PSEUDOMONAS CEPACIA 296I): 12.5 µg/mL (≈ 20 µM); MIC ([15]; S. aureus A5177): 6.2 µg/mL (≈ 9.94 µM); MIC [16]: > 100 µg/mL; MIC (ESCHERICHIA COLI DC-2): 0.78 µg/mL (≈ 1.25 µM); MIC [17]: > 100 µg/mL; MIC [18]: 0.39 µg/mL (≈ 0.625 µM); MIC [19]: > 100 µg/mL; MIC [20]: 6.2 µg/mL (≈ 9.94 µM); MIC [21]: > 100 µg/mL; MIC [22]: 3.1 µg/mL (≈ 4.97 µM); MIC (ESCHERICHIA COLI H560): 50 µg/mL (≈ 80.1 µM); MIC [23]: 6.2 µg/mL (≈ 9.94 µM)
CC[C@H]1OC(=O)[C@H](C)C(=O)[C@H](C)[C@@H](O[C@@H]2O[C@H](C)C[C@H](N(C)C)[C@H]2O)[C@](C)(OC)C[C@@H](C)C2=NC[C@H](Cc3ccc(OCc4ccccc4)cc3)N3C(=O)O[C@@]1(C)[C@H]3[C@H]2C [Example 64] | > 100 | > 100 | > 100 | > 100 | > 100 | 0.05 (≈ 0.0599 µM) | 50 (≈ 59.9 µM) | > 100 | > 100 | 0.2 (≈ 0.24 µM) | > 100 | 50 (≈ 59.9 µM) | 0.39 (≈ 0.468 µM) | 0.78 (≈ 0.935 µM) | 0.1 (≈ 0.12 µM) | 0.78 (≈ 0.935 µM) | 0.2 (≈ 0.24 µM) | 0.1 (≈ 0.12 µM) | 0.39 (≈ 0.468 µM) | > 100 | MIC (PSEUDOMONAS CEPACIA 296I): > 100 µg/mL; MIC ([15]; S. aureus A5177, unit assumed): 0.2 µg/mL (≈ 0.24 µM); MIC (ESCHERICHIA COLI SS): 6.2 µg/mL (≈ 7.43 µM); MIC [16]: > 100 µg/mL; MIC (ESCHERICHIA COLI DC-2): > 100 µg/mL; MIC [17]: 50 µg/mL (≈ 59.9 µM); MIC [18]: 0.1 µg/mL (≈ 0.12 µM); MIC [19]: 12.5 µg/mL (≈ 15 µM); MIC [20]: 0.2 µg/mL (≈ 0.24 µM); MIC [21]: 25 µg/mL (≈ 30 µM); MIC [22]: 1.56 µg/mL (≈ 1.87 µM); MIC (ESCHERICHIA COLI H560): > 100 µg/mL; MIC [23]: 0.39 µg/mL (≈ 0.468 µM)
